Assay results as given in the CheMixHub ionic liquid set.
± gives the uncertainty stated by the source.

Assay: xn = mol fraction of the nth substance listed
Details: 100 kPa

CCCCCCCC[n+]1ccccc1.[Br-] + CC(C)C[C@H](N)C(=O)O + O
Details	electrical conductivity [S/m]
288.15 K, x2 = 0.0008942, x1 = 0.006691	1.27 ± 0.076
288.15 K, x2 = 0.0008943, x1 = 0.006585	1.26 ± 0.075
288.15 K, x2 = 0.0008945, x1 = 0.006321	1.23 ± 0.074
288.15 K, x2 = 0.0008948, x1 = 0.005952	1.19 ± 0.072
288.15 K, x2 = 0.0008952, x1 = 0.005558	1.15 ± 0.069
288.15 K, x2 = 0.0008956, x1 = 0.005126	1.11 ± 0.067
288.15 K, x2 = 0.000896, x1 = 0.004648	1.05 ± 0.063
288.15 K, x2 = 0.0008965, x1 = 0.00414	0.989 ± 0.059
288.15 K, x2 = 0.000897, x1 = 0.003579	0.891 ± 0.053
288.15 K, x2 = 0.0008975, x1 = 0.002951	0.778 ± 0.047
288.15 K, x2 = 0.0008982, x1 = 0.002257	0.635 ± 0.038
288.15 K, x2 = 0.0008986, x1 = 0.001784	0.529 ± 0.032
288.15 K, x2 = 0.000899, x1 = 0.001328	0.417 ± 0.025
288.15 K, x2 = 0.0008994, x1 = 0.0008528	0.298 ± 0.018
288.15 K, x2 = 0.001786, x1 = 0.007009	1.29 ± 0.077
288.15 K, x2 = 0.001787, x1 = 0.006296	1.21 ± 0.073
288.15 K, x2 = 0.001787, x1 = 0.006626	1.25 ± 0.075
288.15 K, x2 = 0.001788, x1 = 0.005936	1.17 ± 0.07
288.15 K, x2 = 0.001789, x1 = 0.005553	1.12 ± 0.068
288.15 K, x2 = 0.00179, x1 = 0.004654	1.02 ± 0.062
288.15 K, x2 = 0.00179, x1 = 0.005124	1.08 ± 0.065
288.15 K, x2 = 0.001791, x1 = 0.004138	0.963 ± 0.058
288.15 K, x2 = 0.001792, x1 = 0.00359	0.869 ± 0.052
288.15 K, x2 = 0.001793, x1 = 0.002944	0.753 ± 0.045
288.15 K, x2 = 0.001795, x1 = 0.001946	0.545 ± 0.033
288.15 K, x2 = 0.001795, x1 = 0.002309	0.625 ± 0.037
288.15 K, x2 = 0.001796, x1 = 0.00149	0.443 ± 0.027
288.15 K, x2 = 0.001797, x1 = 0.0009613	0.319 ± 0.019
293.15 K, x2 = 0.0008942, x1 = 0.006678	1.44 ± 0.086
293.15 K, x2 = 0.0008943, x1 = 0.006573	1.42 ± 0.085
293.15 K, x2 = 0.0008945, x1 = 0.00631	1.39 ± 0.084
293.15 K, x2 = 0.0008948, x1 = 0.005941	1.35 ± 0.081
293.15 K, x2 = 0.0008952, x1 = 0.005547	1.3 ± 0.078
293.15 K, x2 = 0.0008956, x1 = 0.005117	1.26 ± 0.075
293.15 K, x2 = 0.000896, x1 = 0.004639	1.19 ± 0.072
293.15 K, x2 = 0.0008965, x1 = 0.004133	1.12 ± 0.067
293.15 K, x2 = 0.000897, x1 = 0.003572	1.01 ± 0.061
293.15 K, x2 = 0.0008975, x1 = 0.002945	0.879 ± 0.053
293.15 K, x2 = 0.0008982, x1 = 0.002253	0.718 ± 0.043
293.15 K, x2 = 0.0008986, x1 = 0.001782	0.597 ± 0.036
293.15 K, x2 = 0.000899, x1 = 0.001327	0.47 ± 0.028
293.15 K, x2 = 0.0008994, x1 = 0.000851	0.333 ± 0.02
293.15 K, x2 = 0.001786, x1 = 0.006996	1.47 ± 0.088
293.15 K, x2 = 0.001787, x1 = 0.006286	1.38 ± 0.083
293.15 K, x2 = 0.001787, x1 = 0.006613	1.43 ± 0.086
293.15 K, x2 = 0.001788, x1 = 0.005926	1.33 ± 0.08
293.15 K, x2 = 0.001789, x1 = 0.005542	1.28 ± 0.077
293.15 K, x2 = 0.00179, x1 = 0.004645	1.16 ± 0.07
293.15 K, x2 = 0.00179, x1 = 0.005113	1.23 ± 0.074
293.15 K, x2 = 0.001791, x1 = 0.004131	1.09 ± 0.065
293.15 K, x2 = 0.001792, x1 = 0.003584	0.986 ± 0.059
293.15 K, x2 = 0.001793, x1 = 0.002938	0.852 ± 0.051
293.15 K, x2 = 0.001795, x1 = 0.001937	0.616 ± 0.037
293.15 K, x2 = 0.001795, x1 = 0.002304	0.706 ± 0.042
293.15 K, x2 = 0.001796, x1 = 0.001487	0.497 ± 0.03
293.15 K, x2 = 0.001797, x1 = 0.0009613	0.359 ± 0.022
298.15 K, x2 = 0.0008942, x1 = 0.006669	1.62 ± 0.097
298.15 K, x2 = 0.0008943, x1 = 0.006564	1.6 ± 0.096
298.15 K, x2 = 0.0008945, x1 = 0.006301	1.57 ± 0.094
298.15 K, x2 = 0.0008948, x1 = 0.005934	1.52 ± 0.091
298.15 K, x2 = 0.0008952, x1 = 0.00554	1.47 ± 0.088
298.15 K, x2 = 0.0008956, x1 = 0.00511	1.41 ± 0.085
298.15 K, x2 = 0.000896, x1 = 0.004634	1.34 ± 0.081
298.15 K, x2 = 0.0008965, x1 = 0.004127	1.25 ± 0.075
298.15 K, x2 = 0.000897, x1 = 0.003568	1.13 ± 0.068
298.15 K, x2 = 0.0008975, x1 = 0.002942	0.987 ± 0.059
298.15 K, x2 = 0.0008982, x1 = 0.002249	0.803 ± 0.048
298.15 K, x2 = 0.0008986, x1 = 0.00178	0.668 ± 0.04
298.15 K, x2 = 0.000899, x1 = 0.001325	0.525 ± 0.032
298.15 K, x2 = 0.0008994, x1 = 0.000851	0.369 ± 0.022
